Key:
Assay type in all cases: cell-based
[1] = target: Ba/F3 EGFR-V769_D770insASV (Homo sapiens, UniProt P00533, DUP767-769, cells depend on it); assay: Proliferation experiment of Ba/F3 cell line, EGFR-V769_D770insASV (CellTiter-Glo); conditions: cultured for 72 hrs with compound, CTG analysis, read-out: Ba/F3 EGFR-V769_D770insASV IC50
Procedure, shortened: (§1)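 […] Ba/F3 cells expressing EGFR insertion mutants treated 72 h at 37 °C with 9 concentrations, 3.16-fold dilutions, top 10 μM, 0.1% DMSO, in triplicate. Viability by CellTiter-Glo luminescence with T0 reference plate; IC50 (nM) from non-linear dose-response fit.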

[2] = target: Ba/F3 EGFR-D770-N771ins_SVD (Homo sapiens, UniProt P00533, DUP768-770, cells depend on it); assay: Proliferation experiment of Ba/F3 cell line, EGFR-D770-N771ins_SVD (CellTiter-Glo); conditions: cultured for 72 hrs with compound, CTG analysis, read-out: Ba/F3 EGFR-D770-N771ins_SVD IC50
Procedure, shortened: as §1

[3] = test system: A431 (EGFR-WT); assay: Proliferation experiment, A431 cell line (CellTiter-Glo); conditions: Homo sapiens, A-431; A431 cells, cultured for 72 hrs with compound, CTG analysis

Sequence of Ba/F3 EGFR-V769_D770insASV (P00533 with tags, fused parts or gaps DUP767-769): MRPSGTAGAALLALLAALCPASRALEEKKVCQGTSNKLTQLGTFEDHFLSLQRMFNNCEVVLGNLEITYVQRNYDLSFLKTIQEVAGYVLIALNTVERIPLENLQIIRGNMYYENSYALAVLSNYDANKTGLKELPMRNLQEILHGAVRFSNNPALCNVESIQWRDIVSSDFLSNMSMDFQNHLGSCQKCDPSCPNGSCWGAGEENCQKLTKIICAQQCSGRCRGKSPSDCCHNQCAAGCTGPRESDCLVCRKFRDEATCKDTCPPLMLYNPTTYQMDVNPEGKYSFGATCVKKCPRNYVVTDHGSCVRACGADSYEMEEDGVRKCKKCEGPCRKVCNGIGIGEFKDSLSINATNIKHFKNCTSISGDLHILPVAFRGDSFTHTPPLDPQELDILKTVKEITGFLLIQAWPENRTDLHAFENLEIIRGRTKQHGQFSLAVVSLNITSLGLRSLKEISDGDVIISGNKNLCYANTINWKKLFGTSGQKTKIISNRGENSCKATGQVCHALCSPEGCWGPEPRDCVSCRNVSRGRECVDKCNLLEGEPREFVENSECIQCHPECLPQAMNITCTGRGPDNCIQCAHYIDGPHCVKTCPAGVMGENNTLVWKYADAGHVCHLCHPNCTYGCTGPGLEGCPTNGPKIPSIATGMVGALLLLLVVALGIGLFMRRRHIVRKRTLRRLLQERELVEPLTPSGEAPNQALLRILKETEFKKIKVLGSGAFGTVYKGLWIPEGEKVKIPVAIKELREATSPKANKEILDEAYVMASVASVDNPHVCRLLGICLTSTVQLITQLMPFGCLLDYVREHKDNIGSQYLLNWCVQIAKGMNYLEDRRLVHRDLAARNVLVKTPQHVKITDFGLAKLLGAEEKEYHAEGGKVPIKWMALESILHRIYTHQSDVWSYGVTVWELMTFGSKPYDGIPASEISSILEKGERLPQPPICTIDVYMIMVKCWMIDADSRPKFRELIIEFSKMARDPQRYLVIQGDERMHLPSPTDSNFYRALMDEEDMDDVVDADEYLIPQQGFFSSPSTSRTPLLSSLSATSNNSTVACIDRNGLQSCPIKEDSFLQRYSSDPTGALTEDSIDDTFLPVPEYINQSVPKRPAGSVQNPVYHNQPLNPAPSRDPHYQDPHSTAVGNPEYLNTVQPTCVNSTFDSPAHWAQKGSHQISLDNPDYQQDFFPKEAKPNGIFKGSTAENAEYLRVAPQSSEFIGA
Sequence of Ba/F3 EGFR-D770-N771ins_SVD (P00533 with tags, fused parts or gaps DUP768-770): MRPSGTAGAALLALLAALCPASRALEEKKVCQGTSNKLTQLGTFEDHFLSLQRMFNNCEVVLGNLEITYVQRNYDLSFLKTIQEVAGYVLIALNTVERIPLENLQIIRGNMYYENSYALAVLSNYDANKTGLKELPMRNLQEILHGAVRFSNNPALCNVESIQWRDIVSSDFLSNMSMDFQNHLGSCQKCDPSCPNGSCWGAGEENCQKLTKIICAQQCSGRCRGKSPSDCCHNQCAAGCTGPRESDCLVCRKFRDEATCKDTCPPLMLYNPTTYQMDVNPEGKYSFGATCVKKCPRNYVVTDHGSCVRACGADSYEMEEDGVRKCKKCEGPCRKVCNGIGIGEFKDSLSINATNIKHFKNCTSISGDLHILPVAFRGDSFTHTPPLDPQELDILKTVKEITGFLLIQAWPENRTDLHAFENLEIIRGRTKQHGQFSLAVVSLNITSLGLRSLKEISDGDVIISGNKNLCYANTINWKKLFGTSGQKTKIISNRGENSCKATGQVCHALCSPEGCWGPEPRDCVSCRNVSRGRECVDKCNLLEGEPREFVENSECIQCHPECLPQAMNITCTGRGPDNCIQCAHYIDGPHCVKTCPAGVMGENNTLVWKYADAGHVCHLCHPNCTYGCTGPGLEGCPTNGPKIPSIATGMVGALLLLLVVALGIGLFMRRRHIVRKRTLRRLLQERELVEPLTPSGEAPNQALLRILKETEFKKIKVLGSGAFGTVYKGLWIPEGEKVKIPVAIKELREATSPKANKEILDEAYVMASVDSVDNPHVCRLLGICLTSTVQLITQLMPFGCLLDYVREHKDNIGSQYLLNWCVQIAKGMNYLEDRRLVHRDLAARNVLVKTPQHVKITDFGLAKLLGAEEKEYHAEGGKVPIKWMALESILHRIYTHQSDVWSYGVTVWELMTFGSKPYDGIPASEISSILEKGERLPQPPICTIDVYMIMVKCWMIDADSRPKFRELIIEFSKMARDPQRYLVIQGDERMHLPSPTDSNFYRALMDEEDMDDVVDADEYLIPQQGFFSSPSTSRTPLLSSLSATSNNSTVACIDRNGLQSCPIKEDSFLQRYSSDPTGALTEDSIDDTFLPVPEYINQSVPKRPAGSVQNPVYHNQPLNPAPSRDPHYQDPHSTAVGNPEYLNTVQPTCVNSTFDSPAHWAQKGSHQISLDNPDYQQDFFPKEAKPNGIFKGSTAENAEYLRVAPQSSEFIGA

C=CC(=O)Nc1cc2c(Nc3cccc(-c4c(F)cccc4F)c3)ncnc2cc1OCCCN1CCN(C2CC2)CC1 [Example 29, N-(7-(3-(4-cyclopropylpiperazin-1-yl)propoxy)-4-((2′,6′-difluoro-[1,1′-biphenyl]-3-yl)amino)quinazolin-6-yl)acrylamide]
GI50 [1]: 44.6 nM | GI50 [2]: 37 nM | IC50 [3]: 51.8 nM

C=CC(=O)Nc1cc2c(Nc3cccc(-c4ccccc4F)c3)ncnc2cc1OCCCN1CCN(C)CC1 [Example 46, N-(4-((2′-fluoro-[1,1′-biphenyl]-3-yl)amino)-7-(3-(4-methylpiperazin-1-yl)propoxy)quinazolin-6-yl)acrylamide]
GI50 [1]: 15.8 nM | GI50 [2]: 11.9 nM | IC50 [3]: 120 nM

C=C(F)C(=O)Nc1cc2c(Nc3ccnc(-c4ccccc4F)c3)ncnc2cc1OCC1CC1 [Example 91, N-(7-(cyclopropylmethoxy)-4-((2-(2-fluorophenyl)pyridin-4-yl)amino)quinazolin-6-yl)-2-fluoroacrylamide]
GI50 [1]: 32.7 nM | GI50 [2]: 12.7 nM | IC50 [3]: 655 nM

C=CC(=O)Nc1cc2c(Nc3cccc(-c4ccc(F)cc4F)c3)ncnc2cc1OCCN1CCOCC1 [Example 3, N-(4-((2′,4′-difluoro-[1,1′-biphenyl]-3-yl)amino)-7-(2-morpholinoethoxy)quinazolin-6-yl)acrylamide]
GI50 [1]: 117 nM | GI50 [2]: 38.5 nM | IC50 [3]: 343 nM

C=CC(=O)Nc1cc2c(Nc3ccnc(-c4ccccc4F)c3)ncnc2cc1O[C@@H]1CCN(C)C1 [Example 65, (R)—N-(4-((2-(2-fluorophenyl)pyridin-4-yl)amino)-7-((1-methylpyrrolidin-3-yl)oxy)quinazolin-6-yl)acrylamide]
GI50 [1]: 7.9 nM | GI50 [2]: 4.1 nM | IC50 [3]: 289 nM

C=CC(=O)Nc1cc2c(Nc3ccc(F)c(-c4ccccn4)c3)ncnc2cc1OCCCN1CCOCC1 [Example 49, N-(4-((4-fluoro-3-(pyridin-2-yl)phenyl)amino)-7-(3-morpholinopropoxy)quinazolin-6-yl)acrylamide]
GI50 [1]: 59.1 nM | GI50 [2]: 28.6 nM | IC50 [3]: 377 nM

C=CC(=O)Nc1cc2c(Nc3cncc(-c4ccccc4F)c3)ncnc2cc1OCCN1CCOCC1 [Example 57, N-(4-((5-(2-fluorophenyl)pyridin-3-yl)amino)-7-(2-morpholinoethoxy)quinazolin-6-yl)acrylamide]
GI50 [1]: 28.7 nM | GI50 [2]: 10.8 nM | IC50 [3]: 1070 nM

C=CC(=O)Nc1cc2c(Nc3ccnc(-c4c(F)cccc4F)c3)ncnc2cc1O[C@@H]1CCN(C)C1 [Example 76, (R)-N-(4-((2-(2,6-difluorophenyl)pyridin-4-yl)amino)-7-((1-methylpyrrolidin-3-yl)oxy)quinazolin-6-yl)acrylamide]
GI50 [1]: 6.4 nM | GI50 [2]: 2.9 nM | IC50 [3]: 73.2 nM

C=CC(=O)Nc1cc2c(Nc3cncc(-c4c(F)cccc4F)c3)ncnc2cc1O[C@@H]1CCN(C)C1 [Example 64, (R)-N-(4-((5-(2,6-difluorophenyl)pyridin-3-yl)amino)-7-((1-methylpyrrolidin-3-yl)oxy)quinazolin-6-yl)acrylamide]
GI50 [1]: 63.6 nM | GI50 [2]: 34.5 nM | IC50 [3]: 1000 nM

C=CC(=O)Nc1cc2c(Nc3ccc(F)c(-c4ccccc4)c3)ncnc2cc1OCCCN1CCN(C)CC1 [Example 48, N-(4-((6-fluoro-[1,1′-biphenyl]-3-yl)amino)-7-(3-(4-methylpiperazin-1-yl)propoxy)quinazolin-6-yl)acrylamide]
GI50 [1]: 41.4 nM | GI50 [2]: 14.5 nM | IC50 [3]: 26 nM

C=CC(=O)Nc1cc2c(Nc3cccc(-c4ccc(F)cc4F)c3)ncnc2cc1O[C@@H]1CCN(C)C1 [Example 8, (R)-N-(4-((2′,4′-difluoro-[1,1′-biphenyl]-3-yl)amino)-7-((1-methylpyrrolidin-3-yl)oxy)quinazolin-6-yl)acrylamide]
GI50 [1]: 178 nM | GI50 [2]: 88.8 nM | IC50 [3]: 343 nM

C=CC(=O)Nc1cc2c(Nc3cccc(-c4ccc(F)cc4F)c3)ncnc2cc1OCCN1CCC(F)(F)C1 [Example 19, N-(4-((2′,4′-difluoro-[1,1′-biphenyl]-3-yl)amino)-7-(2-(3,3-difluoropyrrolidin-1-yl)ethoxy)quinazolin-6-yl)acrylamide]
GI50 [1]: 177 nM | GI50 [2]: 70.5 nM | IC50 [3]: 597 nM

C=CC(=O)Nc1cc2c(Nc3cccc(-c4ncc(F)cc4F)c3)ncnc2cc1OCCCN1CCOCC1 [Example 17, N-(4-((3-(3,5-difluoropyridin-2-yl)phenyl)amino)-7-(3-morpholinopropoxy)quinazolin-6-yl)acrylamide]
GI50 [1]: 90.9 nM | GI50 [2]: 26.1 nM | IC50 [3]: 518 nM

C=CC(=O)Nc1cc2c(Nc3ccnc(-c4ccc(F)cc4F)c3)ncnc2cc1OCCCN1CCOCC1 [Example 78, N-(4-((2-(2,4-difluorophenyl)pyridin-4-yl)amino)-7-(3-morpholinopropoxy)quinazolin-6-yl)acrylamide]
GI50 [1]: 3.8 nM | GI50 [2]: 3.2 nM | IC50 [3]: 41 nM
